Results taken from ChEMBL document CHEMBL1201862, “PubChem BioAssay data set” (2004).
Calls of active or inactive are those of the source.

Experiments:
BJ [1] = test: BJ-TERT-LT-ST fibroblast viability loss – cell-based, RAS-independent, luminescence, dose response (AID 1935); format: functional; conditions: Homo sapiens;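 also: BJ fibroblasts immortalized with TERT plus LT and ST oncogenes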
HEK293 [2] = test: NOD2 signaling inhibitors in MDP-stimulated cells, cell-based, uHTS, luminescence (AID 2001); format: functional; conditions: Homo sapiens
[3] = target: Sphingosine 1-phosphate receptor 1 (Homo sapiens, UniProt P21453); format: functional;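 also: Tango beta-arrestin reporter U2OS cells stimulated with S1P near its EC80; inhibitor potency meaning antagonism of receptor activation by the natural agonist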
Chain of Sphingosine 1-phosphate receptor 1 (P21453 whole entry): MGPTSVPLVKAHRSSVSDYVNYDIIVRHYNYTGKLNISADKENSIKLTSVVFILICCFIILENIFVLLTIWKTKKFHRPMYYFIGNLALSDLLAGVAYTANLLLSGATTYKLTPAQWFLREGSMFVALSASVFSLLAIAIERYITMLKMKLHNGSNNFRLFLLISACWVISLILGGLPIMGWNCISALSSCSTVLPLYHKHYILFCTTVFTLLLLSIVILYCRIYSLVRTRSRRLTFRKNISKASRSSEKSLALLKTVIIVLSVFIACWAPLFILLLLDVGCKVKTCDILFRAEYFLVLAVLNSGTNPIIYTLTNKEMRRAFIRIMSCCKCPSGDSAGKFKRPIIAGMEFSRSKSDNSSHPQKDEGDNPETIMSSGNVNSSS

[4] = DRD fibroblast viability loss – cell-based, non-viral oncogenic, luminescence, dose response (AID 1934); format: functional; conditions: Homo sapiens
Melanocortin receptor 4 = Melanocortin receptor 4 (Homo sapiens, UniProt P32245); test: inhibitors of MC4R cAMP signaling – cell-based, TR-FRET, biased antagonists, dose response (AID 602298); format: functional;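 also: antagonist potency against agonist-stimulated cAMP production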
Chain of Melanocortin receptor 4 (P32245 whole entry): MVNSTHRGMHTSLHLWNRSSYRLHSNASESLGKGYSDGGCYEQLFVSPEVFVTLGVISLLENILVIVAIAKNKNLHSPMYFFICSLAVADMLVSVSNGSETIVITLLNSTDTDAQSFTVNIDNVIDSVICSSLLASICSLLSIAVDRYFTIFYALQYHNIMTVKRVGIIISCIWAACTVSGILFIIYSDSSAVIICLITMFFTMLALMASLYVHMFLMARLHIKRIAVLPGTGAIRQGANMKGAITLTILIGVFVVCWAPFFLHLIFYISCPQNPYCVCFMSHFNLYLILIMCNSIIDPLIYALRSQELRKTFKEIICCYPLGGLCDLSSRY

BJ [5] = test: BJ-TERT fibroblast viability loss – cell-based, RAS-independent, luminescence, dose response (AID 1933); format: functional; conditions: Homo sapiens
[6] = target: T1, Replicative DNA helicase DnaB (Mycobacterium tuberculosis, UniProt P9WMR3); test: DnaB intein splicing inhibitors, dose response, biochemical, cell-free fluorescence (AID 449749); format: functional
T1 sequence (P9WMR3 whole entry): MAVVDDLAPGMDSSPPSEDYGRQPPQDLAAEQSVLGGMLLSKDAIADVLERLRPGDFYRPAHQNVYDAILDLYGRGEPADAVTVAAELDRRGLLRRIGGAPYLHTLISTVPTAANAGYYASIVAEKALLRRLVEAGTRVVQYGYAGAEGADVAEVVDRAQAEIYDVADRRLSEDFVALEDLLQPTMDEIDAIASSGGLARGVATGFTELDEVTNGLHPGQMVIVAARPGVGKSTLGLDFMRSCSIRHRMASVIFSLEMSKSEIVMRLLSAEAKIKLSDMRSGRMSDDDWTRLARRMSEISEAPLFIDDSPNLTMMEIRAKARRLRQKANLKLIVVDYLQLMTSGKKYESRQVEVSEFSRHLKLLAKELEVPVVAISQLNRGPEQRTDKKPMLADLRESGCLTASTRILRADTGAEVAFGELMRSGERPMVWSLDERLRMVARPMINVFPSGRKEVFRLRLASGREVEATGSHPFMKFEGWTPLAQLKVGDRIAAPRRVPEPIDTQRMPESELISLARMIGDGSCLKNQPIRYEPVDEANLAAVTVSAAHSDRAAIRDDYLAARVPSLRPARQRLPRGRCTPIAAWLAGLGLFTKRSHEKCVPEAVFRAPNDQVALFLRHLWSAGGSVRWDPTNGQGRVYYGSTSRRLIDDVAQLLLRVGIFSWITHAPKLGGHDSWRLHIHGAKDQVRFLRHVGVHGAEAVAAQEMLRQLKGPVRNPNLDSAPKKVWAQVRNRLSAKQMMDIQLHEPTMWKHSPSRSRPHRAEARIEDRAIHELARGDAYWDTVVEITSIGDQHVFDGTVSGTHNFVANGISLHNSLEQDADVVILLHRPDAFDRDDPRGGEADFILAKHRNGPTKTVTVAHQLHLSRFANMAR

Protein RecA = target: T2, Protein RecA (Mycobacterium tuberculosis, UniProt P9WHJ3); test: Fluorescence Cell-Free Homogeneous Dose Retest to Identify Inhibitors of RecA-Intein Splicing Activity. [Related pubchem assays (depositor defined):AID2097, AID2223, AID489010, AID492950]; format: functional
T2 sequence (P9WHJ3 whole entry): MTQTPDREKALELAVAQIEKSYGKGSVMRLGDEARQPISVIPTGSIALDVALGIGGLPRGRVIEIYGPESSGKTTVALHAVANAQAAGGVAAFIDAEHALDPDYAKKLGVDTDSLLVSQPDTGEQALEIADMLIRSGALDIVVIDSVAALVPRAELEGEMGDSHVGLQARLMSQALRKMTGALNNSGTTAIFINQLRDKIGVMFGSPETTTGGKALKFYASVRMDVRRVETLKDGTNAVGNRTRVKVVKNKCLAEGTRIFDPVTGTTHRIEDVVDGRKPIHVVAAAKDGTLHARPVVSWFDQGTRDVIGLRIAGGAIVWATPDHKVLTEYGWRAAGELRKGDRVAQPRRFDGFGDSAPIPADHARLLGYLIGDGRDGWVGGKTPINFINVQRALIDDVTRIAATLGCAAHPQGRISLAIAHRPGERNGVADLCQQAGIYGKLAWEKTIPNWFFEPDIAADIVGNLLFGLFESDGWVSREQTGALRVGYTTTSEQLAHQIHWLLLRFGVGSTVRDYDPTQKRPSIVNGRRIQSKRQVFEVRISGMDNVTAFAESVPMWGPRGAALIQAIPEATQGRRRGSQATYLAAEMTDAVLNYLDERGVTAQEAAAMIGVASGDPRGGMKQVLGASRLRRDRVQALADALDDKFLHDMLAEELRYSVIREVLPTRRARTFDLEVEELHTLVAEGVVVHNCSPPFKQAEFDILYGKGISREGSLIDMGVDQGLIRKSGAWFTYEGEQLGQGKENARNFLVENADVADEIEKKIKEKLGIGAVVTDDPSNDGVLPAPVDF

[7] = Intein inhibitors as potential Tuberculosis drugs, a cytotoxicity screen. [Related pubchem assays (depositor defined):AID2221, AID2223, AID434968, AID435010, AID449749, AID449750, AID489010]; format: functional
[8] = target: Sphingosine 1-phosphate receptor 4 (Homo sapiens, UniProt O95977); test: Fluorescence dose response cell-based high throughput screening assay for antagonists of the Sphingosine 1-Phosphate Receptor 4 (S1P4). [Related pubchem assays: 1524 (Confirmation in triplicates.), 1510 (Primary screen.)]; format: functional
Chain of Sphingosine 1-phosphate receptor 4 (O95977 whole entry): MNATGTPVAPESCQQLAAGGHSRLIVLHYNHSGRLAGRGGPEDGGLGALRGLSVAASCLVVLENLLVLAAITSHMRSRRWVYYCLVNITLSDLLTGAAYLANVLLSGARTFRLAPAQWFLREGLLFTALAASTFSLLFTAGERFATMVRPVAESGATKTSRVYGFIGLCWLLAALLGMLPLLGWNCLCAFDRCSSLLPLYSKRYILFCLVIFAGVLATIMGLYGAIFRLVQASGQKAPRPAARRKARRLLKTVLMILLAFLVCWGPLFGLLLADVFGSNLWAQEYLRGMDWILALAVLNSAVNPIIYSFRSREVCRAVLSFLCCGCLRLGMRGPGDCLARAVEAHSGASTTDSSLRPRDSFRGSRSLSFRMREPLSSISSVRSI

HEK293 [9] = test: cells; format: functional, cell-based; conditions: Homo sapiens
HEK293 [10] = test: inhibition of NOD1-driven NF-kB reporter – cell-based, luminescence, uHTS, primary screen (AID 1578); format: functional; conditions: Homo sapiens
BJ [11] = test: cells; format: functional, cell-based; conditions: Homo sapiens
[12] = cAMP pathway inhibition in counterscreen cell line – TR-FRET cAMP detection, counter-screen for MC4R biased antagonist project, dose response (AID 602305); format: functional, cell-based;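 also: U2OS cells stimulated with forskolin near its EC80 as the cAMP inducer; potency is for inhibition of forskolin-stimulated cAMP signaling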
[13] = target: Nucleotide-binding oligomerization domain-containing protein 2 (Homo sapiens, UniProt Q9HC29); test: inhibition of NOD2-driven NF-kB reporter – cell-based, luminescence, uHTS, HEK293 (AID 1566); format: functional
Chain of Nucleotide-binding oligomerization domain-containing protein 2 (Q9HC29 whole entry, the tested form may be a part): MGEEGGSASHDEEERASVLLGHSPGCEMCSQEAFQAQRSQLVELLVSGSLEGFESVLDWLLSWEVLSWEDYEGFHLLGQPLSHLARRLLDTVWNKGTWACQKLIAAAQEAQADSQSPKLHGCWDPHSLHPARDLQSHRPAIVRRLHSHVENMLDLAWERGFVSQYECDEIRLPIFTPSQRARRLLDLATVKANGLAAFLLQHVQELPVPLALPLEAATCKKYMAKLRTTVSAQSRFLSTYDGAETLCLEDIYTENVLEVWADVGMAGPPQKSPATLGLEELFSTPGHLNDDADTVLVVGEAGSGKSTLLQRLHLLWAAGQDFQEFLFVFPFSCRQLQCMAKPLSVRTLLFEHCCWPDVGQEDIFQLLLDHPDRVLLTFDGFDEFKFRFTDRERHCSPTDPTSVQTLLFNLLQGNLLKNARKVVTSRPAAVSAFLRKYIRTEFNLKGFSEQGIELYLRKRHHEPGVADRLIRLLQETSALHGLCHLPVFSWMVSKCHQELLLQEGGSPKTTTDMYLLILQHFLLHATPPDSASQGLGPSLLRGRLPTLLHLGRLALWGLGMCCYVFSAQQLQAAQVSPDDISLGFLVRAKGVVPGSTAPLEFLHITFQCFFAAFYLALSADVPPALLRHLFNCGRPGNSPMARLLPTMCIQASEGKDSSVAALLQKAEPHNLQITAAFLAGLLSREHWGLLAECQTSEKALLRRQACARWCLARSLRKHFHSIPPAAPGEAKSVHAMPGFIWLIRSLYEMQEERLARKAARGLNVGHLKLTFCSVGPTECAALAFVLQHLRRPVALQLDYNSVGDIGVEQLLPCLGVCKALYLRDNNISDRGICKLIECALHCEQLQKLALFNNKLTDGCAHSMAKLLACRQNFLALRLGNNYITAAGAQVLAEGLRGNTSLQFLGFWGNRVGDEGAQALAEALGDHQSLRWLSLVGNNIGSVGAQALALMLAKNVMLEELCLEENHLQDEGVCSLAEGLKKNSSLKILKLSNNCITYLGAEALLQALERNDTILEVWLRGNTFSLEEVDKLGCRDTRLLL

HEK293 [14] = test: cells; format: functional, cell-based; conditions: Homo sapiens; remark: listed apart in the source
HEK293 [15] = test: cells; format: functional, cell-based; conditions: Homo sapiens; remark: listed apart in the source
[16] = viability of PTEN-deleted HCT116 cells – cell-based, HCT116 PTEN knockout, dose response (AID 1047); format: functional;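 also: HCT116 colon tumor cells with PTEN knocked out; cells exposed to compound for 60 hours before readout; potency for loss of cell viability measured by luminescence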
[17] = viability of HCT116 lacking mutant beta-catenin – cell-based, human colon tumor, dose response (AID 1045); format: functional;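 also: HCT116 colon tumor cells with beta catenin knocked out; cells exposed to compound for 60 hours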
[18] = target: T3, Ubiquitin-conjugating enzyme E2 N (Homo sapiens, UniProt P61088); format: functional;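 also: Dose-response confirmation in a TR-FRET assay detecting UBC13-driven polyubiquitin chain formation, inhibition measured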
T3 sequence (P61088 whole entry): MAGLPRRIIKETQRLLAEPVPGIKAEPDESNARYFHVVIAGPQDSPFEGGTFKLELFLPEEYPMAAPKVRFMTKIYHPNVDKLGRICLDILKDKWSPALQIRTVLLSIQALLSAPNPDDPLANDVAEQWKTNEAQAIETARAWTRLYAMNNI

A-375 = test: MITF: Counter assay: A375 proliferation Measured in Cell-Based System Using Plate Reader - 2084-03_Inhibitor_Dose_DryPowder_Activity. [Related pubchem assays (depositor defined):AID488944]; format: functional; conditions: Homo sapiens
[19] = target: T4, Microphthalmia-associated transcription factor (Homo sapiens, UniProt O75030); test: reducers of TRPM1 reporter luminescence, concentration series – cell-based, SK-MEL-5, cherry-picked, set 3, MITF inhibitor project, dose response (AID 493073); format: functional;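 also: SK-MEL-5 melanoma cells with luciferase driven by the MITF target TRPM1 promoter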
T4 sequence (O75030 whole entry): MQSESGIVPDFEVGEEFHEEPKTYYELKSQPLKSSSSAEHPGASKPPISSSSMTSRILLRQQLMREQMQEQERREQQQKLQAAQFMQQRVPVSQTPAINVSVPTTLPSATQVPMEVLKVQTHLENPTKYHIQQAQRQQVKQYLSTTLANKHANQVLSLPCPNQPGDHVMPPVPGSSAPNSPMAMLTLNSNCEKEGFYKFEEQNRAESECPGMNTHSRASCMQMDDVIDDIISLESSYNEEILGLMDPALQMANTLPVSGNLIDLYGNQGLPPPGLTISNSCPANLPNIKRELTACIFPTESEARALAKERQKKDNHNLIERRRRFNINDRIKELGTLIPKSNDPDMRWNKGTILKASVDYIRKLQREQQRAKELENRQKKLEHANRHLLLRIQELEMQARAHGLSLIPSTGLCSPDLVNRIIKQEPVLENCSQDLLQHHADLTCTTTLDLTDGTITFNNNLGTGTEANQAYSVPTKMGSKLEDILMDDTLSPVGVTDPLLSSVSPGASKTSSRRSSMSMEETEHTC

[20] = Fluorescence polarization-based biochemical high throughput dose response assay for activators of the Protein Kinase A-R1A (PKA-R1A) complex. [Related pubchem assays (depositor defined):AID504704, AID504707, AID504799, AID504800]
[21] = Fluorescence polarization-based biochemical high throughput dose response assay for activators of the Protein Kinase A-R2B (PKA-R2B) complex. [Related pubchem assays (depositor defined):AID504700, AID504704, AID504796, AID504797]
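For CC50 in this document: cells exposed to compound for 72 hours before luminescence readout.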

With `CC(=O)n1cc(N(C(=O)CCl)c2ccc(C)cc2)c2ccccc21` the EC50 (BJ [1]) was 5.27 µM (inconclusive), the IC50 (HEK293 [2]) was 5.38 µM (active) and the IC50 [3] was 14.5 µM (not active). The EC50 [4] was 1.2 µM (active), the IC50 (Melanocortin receptor 4) was > 64.6 µM (inactive) and the EC50 (BJ [5]) was 0.812 µM (inconclusive). For the same compound, the AC50 [6] was 2.53 µM (active), the EC50 (Protein RecA) was 0.248 µM (active) and the CC50 [7] was 0.83 µM (active). The IC50 [8] was 1.3 µM (active), the IC50 (HEK293 [9]) was > 20 µM (inactive) and the EC50 (HEK293 [10]) was 16.2 µM (active). For the same compound, the EC50 (BJ [11]) was 2.65 µM (inconclusive), the IC50 [12] was > 64.6 µM (inactive) and the EC50 [13] was > 20 µM (inactive). For the same compound, the IC50 (HEK293 [14]) was 3.22 µM (active) and the IC50 (HEK293 [15]) was 11.5 µM (active).
For `COc1ccc(-c2nn(-c3ccccc3)cc2/C=N/N=C(N)N)cc1OC`, the EC50 [16] was 4.55 µM (active), the EC50 [17] was 4.78 µM (active) and the IC50 [18] was > 20 µM (inactive). The AC50 (A-375) was 17.4 µM (active) and the AC50 [19] was 14.6 µM (active).
In the case of `CCCC(=O)Nc1ncnc2c1ncn2[C@@H]1O[C@@H]2COP(=O)(O)O[C@H]2[C@H]1OC(=O)CCC`, the EC50 [20] is reported as 12.3 µM (inactive) and the EC50 [21] is reported as 11.7 µM (inactive).
